Test results as given in paper PMC8694143 (Microbiology Spectrum, 2021).
Residues, ends and D or L forms follow the SMILES beside them. No end group written: not given here. *: point of attachment. For = O=C*

Legend:
[1] = target: SspA protease (Staphylococcus aureus, UniProt P0C1U8); assay: SspA protease treatment with HPLC/MS analysis; format: in vitro ADME; conditions: peptide 45 μL at 10 mg/mL + SspA 5 μL at 2 mg/mL, 100 mM HEPES pH 7.8, 37°C, 5 h
Protocol: (§1) SspA protease was resuspended at 2 mg/mL in 100 mM HEPES (pH 7.8). Peptide samples (45 μL at 10 mg/mL) were mixed with SspA (5 μL at 2 mg/mL) and incubated at 37°C for a total of 5 h. The antimicrobial activities of the reaction mixtures were assayed by spotting 5 μL (∼45 μg) of each on either M. luteus or S. aureus test organisms as described above. Additional samples were flash frozen in liquid nitrogen and stored at −80°C prior to high-pressure liquid chromatography-mass spectrometry (HPLC/MS) analysis.
HPLC/MS analyses were conducted to assess the proteolytic cleavage of STIPs by the SspA protease and catalogue peptides in the reaction mixtures. An Agilent Infinity II 1260 HPLC outfitted with a Phenomenex Lune C5 column (4.6 by 150 mm, 5 μm) was used to separate the peptide fragments using a binary solvent system consisting of solvent A (water, 0.05% formic acid) and solvent B (acetonitrile, 0.05% formic acid) operating at 0.7 mL/min. A 5-μL volume (∼4.5 μg) of each sample was injected at 10% solvent B, followed by a two-step gradient elution from 10% to 50% solvent B in 30 min, then 50% to 100% B in 10 min. The HPLC was coupled to an Advion CMS(L) single quadrupole mass detector through an electrospray ionization source, and ions were detected between 100 and 2,000 m/z. Low temperature and fragmentation settings were used: capillary temperature 135°C, capillary voltage 120 V, source voltage offset 20 V, source gas temperature 135°C, and electrospray ionization (ESI) voltage 3,500 V.

[2] = test system: MRSA ATCC BAA-42; assay: MIC determination in broth; format: cell-based, Staphylococcus aureus; conditions: cation-adjusted MH broth, 37°C, 16 h
Outline: (§2)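 Cation-adjusted MH broth, inoculum OD 5 × 10^−4 (∼10^5 CFU/mL), 2-fold peptide series, static incubation at 37°C (Staphylococcus spp.).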

[3] = test system: MRSA ATCC BAA-1683; assay: MIC determination in broth; format: cell-based, Staphylococcus aureus; conditions: cation-adjusted MH broth, 37°C, 16 h
Outline: as §2

[4] = test system: S. aureus ATCC 29213; assay: MIC determination in broth; format: cell-based, Staphylococcus aureus; conditions: cation-adjusted MH broth, 37°C, 16 h
Outline: as §2

[5] = test system: MRSA ATCC BAA-44; assay: MIC determination in broth; format: cell-based, Staphylococcus aureus; conditions: cation-adjusted MH broth, 37°C, 16 h
Outline: as §2

[6] = test system: MRSA ATCC 33592; assay: MIC determination in broth; format: cell-based, Staphylococcus aureus; conditions: cation-adjusted MH broth, 37°C, 16 h
Outline: as §2

[7] = test system: MRSA ATCC BAA-2313; assay: MIC determination in broth; format: cell-based, Staphylococcus aureus; conditions: cation-adjusted MH broth, 37°C, 16 h
Outline: as §2

[8] = test system: MRSA ATCC BAA-2094; assay: MIC determination in broth; format: cell-based, Staphylococcus aureus; conditions: cation-adjusted MH broth, 37°C, 16 h
Outline: as §2

[9] = test system: MRSA ATCC BAA-41; assay: MIC determination in broth; format: cell-based, Staphylococcus aureus; conditions: cation-adjusted MH broth, 37°C, 16 h
Outline: as §2

[10] = Circular dichroism spectroscopy; format: physicochemical; conditions: for α-Helical content (%): CD, 50% TFE (vol/vol), peptide 0.2 mg/mL, room temperature
Protocol: Peptides were dissolved in ultrapure water or 50% TFE (vol/vol) at a concentration of 0.2 mg/mL for spectroscopy. Spectra of samples in a 1 mm pathlength quartz cuvette were recorded from 180 to 260 nm at 0.5 nm steps using an Applied Photophysics Chirascan Plus CD spectrophotometer operating at room temperature.

[11] = test system: M. luteus ATCC 4698; assay: MIC determination in broth; format: cell-based, Micrococcus luteus; conditions: cation-adjusted MH broth, ~10^5 CFU/mL, 30°C, 48 h
Protocol: M. luteus ATCC 4698, S. aureus ATCC 29213, a panel of 7 MRSA (ATCC MP-2) strains, which includes ATCC BAA-41, BAA-42, BAA-44, BAA-1683, BAA-2094, BAA-2313, and 33592, and a series of additional bacterial isolates from human and veterinary cases were used in this study (Table S6). Bacterial strains were routinely grown in lysogeny broth (LB: 10 g/L tryptone, 5 g/L yeast extract, 10 g/L NaCl) at 30°C (M. luteus) or 37°C (Staphylococcus spp.) prior to use in specific experiments described below.
The MICs were measured for bioactive peptides identified from the initial screen. Cation-adjusted Mueller-Hinton (MH) broth was used as the growth medium for MIC determination experiments. Bacterial cultures were diluted to an OD of 5 × 10^−4 (∼10^5 CFU/mL) in 200 μL MH broth mixed with peptides in a 2-fold dilution series arrayed in 96-well plates. Plates were incubated without shaking at 30 or 37°C depending on the organism.

[12] = test system: S. aureus ATCC 29213; assay: Spot-on-lawn assay; format: cell-based, Staphylococcus aureus; conditions: 50 μg peptide (about 45 μg of SspA reaction mixture) spotted on inoculated soft agar, 37°C, 16 to 48 h
Protocol: Peptides (≥70% purity) were resuspended in sterile double distilled water (ddH2O) at a concentration of 10 mg/mL (gross weight), and M. luteus and S. aureus ATCC 29213 were used as indicator strains. To prepare test organisms, the optical density (OD) of overnight cultures was measured and the organisms were diluted to an initial OD of 0.05 (S. aureus) or 0.1 (M. luteus) in soft nutrient agar (0.4% wt/vol) at 50°C. Next, 3 mL of soft agar containing a test organism was overlaid on solid LB agar (1.5% wt/vol). A total of 50 μg of each peptide was spotted on the inoculated surface and plates were incubated for 16 to 48 h at 37 or 30°C.
as §1

[13] = test system: sheep red blood cells; assay: Hemolytic activity assay; format: cell-based; conditions: peptides at 100 μg/mL, 1 h, relative to the δ-toxin and other STIPs
Protocol: Thirty-five percent defibrinated sheep’s blood (vol/vol) was centrifuged for 5 min at 4,000 rpm to harvest red blood cells. The cells were washed three times with PBS and harvested by centrifugation prior to dilution to 15% (vol/vol) in PBS in order to evaluate peptide-mediated hemolysis. The assay was performed in 96-well microtiter plates using peptides at 100 μg/mL in a 200-μL volume. […] was used as a negative control and Triton X-100 (0.1% vol/vol) was used as a positive control for complete lysis. After 1 h of incubation, the 96-well microtiter plates were centrifuged at 4,500 rpm for 10 min and a 150 μL aliquot of the supernatant from each sample was carefully transferred to a new 96-well plate. The absorbance of the supernatant was then measured at 540 nm using a Varioskan Lux plate reader (Thermo Scientific). The hemolytic activity is reported relative to complete lysis (%) obtained using Triton X-100. Experiments were performed in triplicate, and statistical differences in hemolysis were measured using an unpaired two-tailed Student’s t test to compare the STIPs and deformylated δ-toxin to the formylated δ-toxin.

[14] = δ-toxins, highest conc. tested 200 μg/mL
[15] = STIP3 variants, highest conc. tested 100 μg/mL, ~10^5 CFU/mL, 2-fold dilution series

SspA protease, sequence (P0C1U8 69-336): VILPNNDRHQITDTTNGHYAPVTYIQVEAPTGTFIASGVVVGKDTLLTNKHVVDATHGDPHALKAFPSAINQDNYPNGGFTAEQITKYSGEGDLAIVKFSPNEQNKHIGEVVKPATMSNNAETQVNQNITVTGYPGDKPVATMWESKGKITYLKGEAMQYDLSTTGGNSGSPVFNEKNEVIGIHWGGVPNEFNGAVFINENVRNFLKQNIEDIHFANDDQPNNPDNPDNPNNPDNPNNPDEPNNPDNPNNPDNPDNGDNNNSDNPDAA

Compound: CC[C@H](C)[C@H](NC(=O)[C@H](Cc1c[nH]c2ccccc12)NC(=O)[C@H](CCCCN)NC(=O)[C@@H](NC(=O)[C@H](CC(C)C)NC(=O)CNC(=O)CNC(=O)[C@@H](NC(=O)[C@@H](NC(=O)[C@H](CCC(=O)O)NC(=O)[C@@H](NC(=O)[C@@H](NC(=O)[C@H](CC(=O)O)NC(=O)[C@H](CCCCN)NC(=O)[C@@H](NC(=O)[C@H](CCSC)NC=O)[C@@H](C)O)[C@@H](C)CC)C(C)C)[C@@H](C)O)C(C)C)C(C)C)C(=O)N[C@@H](CC(C)C)C(=O)N[C@@H](CC(=O)O)C(=O)N[C@H](C(=O)N[C@H](C(=O)N[C@@H](CCCCN)C(=O)N[C@@H](CCCCN)C(=O)N[C@@H](Cc1ccccc1)C(=O)N[C@@H](C)C(=O)O)C(C)C)[C@@H](C)O [δ-toxin] (For-MTKDIVETVGGLVKWILDTVKKFA-OH; C-terminus assumed)
- Susceptibility to SspA cleavage [1]: no SspA cleavage was observed
- MIC, S. aureus ATCC BAA 42 (SCCmec VI) [2, 14]: > (no inhibition was observed at 100 μg/mL for the STIP3 variants or 200 μg/mL for the δ-toxins)
- MIC, S. aureus ATCC BAA 1683 (SCCmec IV) [3, 14]: > (no inhibition was observed at 100 μg/mL for the STIP3 variants or 200 μg/mL for the δ-toxins)
- MIC, S. aureus ATCC 29213 [4, 14]: > (no inhibition was observed at 100 μg/mL for the STIP3 variants or 200 μg/mL for the δ-toxins)
- MIC, S. aureus ATCC BAA 44 (SCCmec I) [5, 14]: > (no inhibition was observed at 100 μg/mL for the STIP3 variants or 200 μg/mL for the δ-toxins)
- MIC, S. aureus ATCC 33592 (SCCmec III) [6, 14]: > (no inhibition was observed at 100 μg/mL for the STIP3 variants or 200 μg/mL for the δ-toxins)
- MIC, S. aureus ATCC BAA 2313 (SCCmec XI) [7, 14]: > (no inhibition was observed at 100 μg/mL for the STIP3 variants or 200 μg/mL for the δ-toxins)
- MIC, S. aureus ATCC BAA 2094 (SCCmec V) [8, 14]: > (no inhibition was observed at 100 μg/mL for the STIP3 variants or 200 μg/mL for the δ-toxins)
- MIC, S. aureus ATCC BAA 41 (SCCmec II) [9, 14]: > (no inhibition was observed at 100 μg/mL for the STIP3 variants or 200 μg/mL for the δ-toxins)
- α-Helical content (%) [10]: 88%
- Secondary structure by CD ([10]; water and 50% trifluoroethanol (vol/vol), 0.2 mg/mL): α-helical in both solvents

Compound: MTKDIVETVGGLVKWILDTVKKFA [δ-toxin (df), deformylated full-length S. auricularis δ-toxin, reference compound]
- Susceptibility to SspA cleavage [1]: susceptible to SspA cleavage
- MIC, S. aureus ATCC BAA 42 (SCCmec VI) [2, 14]: > (no inhibition was observed at 100 μg/mL for the STIP3 variants or 200 μg/mL for the δ-toxins)
- MIC, S. aureus ATCC BAA 1683 (SCCmec IV) [3, 14]: > (no inhibition was observed at 100 μg/mL for the STIP3 variants or 200 μg/mL for the δ-toxins)
- MIC, S. aureus ATCC 29213 [4, 14]: > (no inhibition was observed at 100 μg/mL for the STIP3 variants or 200 μg/mL for the δ-toxins)
- MIC, S. aureus ATCC BAA 44 (SCCmec I) [5, 14]: > (no inhibition was observed at 100 μg/mL for the STIP3 variants or 200 μg/mL for the δ-toxins)
- MIC, S. aureus ATCC 33592 (SCCmec III) [6, 14]: > (no inhibition was observed at 100 μg/mL for the STIP3 variants or 200 μg/mL for the δ-toxins)
- MIC, S. aureus ATCC BAA 2313 (SCCmec XI) [7, 14]: > (no inhibition was observed at 100 μg/mL for the STIP3 variants or 200 μg/mL for the δ-toxins)
- MIC, S. aureus ATCC BAA 2094 (SCCmec V) [8, 14]: > (no inhibition was observed at 100 μg/mL for the STIP3 variants or 200 μg/mL for the δ-toxins)
- MIC, S. aureus ATCC BAA 41 (SCCmec II) [9, 14]: > (no inhibition was observed at 100 μg/mL for the STIP3 variants or 200 μg/mL for the δ-toxins)
- α-Helical content (%) [10]: 87%

Compound: TVAGLVKWILDTVKKFA [G3A]
- MIC, M. luteus [11]: 50 µg/mL
- Inhibition of S. aureus growth, spot-on-lawn [12]: inhibition observed on an agar surface

Compound: TVGALVKWILDTVKKFA [G4A]
- MIC, M. luteus [11]: 12.5 µg/mL
- Inhibition of S. aureus growth, spot-on-lawn [12]: inhibition observed on an agar surface

Compound: TVGGLVKWILATVKKFA-NH2 [STIP3-28, rationally designed STIP3-1 variant, C-terminal amide]
- MIC, S. aureus ATCC BAA 42 (SCCmec VI) [2, 15]: 12.5 µg/mL
- MIC, S. aureus ATCC BAA 1683 (SCCmec IV) [3, 15]: 12.5 µg/mL
- MIC, S. aureus ATCC 29213 [4, 15]: 25 µg/mL
- MIC, S. aureus ATCC BAA 44 (SCCmec I) [5, 15]: 12.5 µg/mL
- MIC, S. aureus ATCC 33592 (SCCmec III) ([6]; Table S5, STIP3 variants, highest conc. tested 100 μg/mL, ~10^5 CFU/mL, 2-fold dilution series): 6.25 µg/mL
- MIC, S. aureus ATCC BAA 2313 (SCCmec XI) [7, 15]: 12.5 µg/mL
- MIC, S. aureus ATCC BAA 2094 (SCCmec V) [8, 15]: 6.25 µg/mL
- MIC, S. aureus ATCC BAA 41 (SCCmec II) [9, 15]: 12.5 µg/mL
- Change of hemolytic activity [13]: increase in hemolysis

Compound: TVGGLVKWILDTVAKFA [K14A]
- MIC, M. luteus [11]: 12.5 µg/mL
- Inhibition of S. aureus growth, spot-on-lawn [12]: inhibition observed on an agar surface

Compound: TVGGLVKWILDTVKAFA [K15A]
- MIC, M. luteus [11]: 25 µg/mL
- Inhibition of S. aureus growth, spot-on-lawn [12]: inhibition observed on an agar surface
